Measurements: patent US20070275366A1, “Regulation of Sperm Function” (priority 2003, published 2007)

Columns and labels:
[1] = tested on: sperm from volunteers and patients attending fertility clinics; conditions: background statement, cited from earlier work
[2] = tested on: frozen-thawed spermatozoa (Bull semen samples); assay: Sperm motility by microscopy on heated stage (percentage of motile spermatozoa with linear progressive movement); type: cell-based; conditions: for increase in sperm motility compared to fibronectin alone / increase in sperm motility compared to the RGD plus fibronectin sample: Angiotensin II 10^−9 moles/L added to fibronectin plus RGDS sample
Method: Each sperm sample was packed and frozen in 0.25 ml plastic straws. The frozen spermatozoa straw (0.25 ml) was rapidly thawed by plunging it into a 37° C. water bath. When the sample was thawed, the straw was dried with a tissue, kept horizontal and cut both ends into a pre-warmed TALP medium.
Spermatozoa were washed twice by TALP medium and centrifugation at 600×g for 10 minutes, then re-suspended with TALP pre-warmed to 37° C. The motility of the frozen-thawed spermatozoa was assessed at 37° C. using thermal plates. Sperm motility and morphology was estimated by microscopical observation on a warm 37° C. stage. Semen (10 μl) was covered by a cover glass (18 mm×18 mm) and at least 5 microscopic fields were examined. Motility was expressed as the percentage of motile spermatozoa with linear progressive movement in the sample (see Vinson, G. P., Puddefoot, J. R., Ho, M. M., Barker, S., Mehta, J., Saridogan, E. and Djahanbakhch, O. (1995). “Type 1 angiotensin II (AT1) receptors in sperm”, Journal Of Endocrinology, 144, 369-378). The prepared sperm sample were incubated with additives at 37° C. in a water bath as described in each example, and assayed for motility as before.
All incubations were carried out at 37° C., using water bath and heated stage. Semen samples (10 μl) were applied to preheated (37° C.) slides and placed on the microscope heated stage and examined. The number of motile sperm were counted in the control sample at zero time, and in the treated samples after the incubation times indicated.

bull spermatozoa = assay: Chlortetracycline (CTC) fluorescence assay of capacitation state; type: cell-based; conditions: Example 6
Text: An alternative method of assessing capacitation is by using the CTC assay (DasGupta S, Mills C L, Fraser L R. Ca(2+)-related changes in the capacitation state of human spermatozoa assessed by a chlortetracycline fluorescence assay. J Reprod Fertil. 1993 September; 99(1):135-43.; Fraser L R, Herod J E. Expression of capacitation-dependent changes in chlortetracycline fluorescence patterns in mouse spermatozoa requires a suitable glycolysable substrate. J Reprod Fertil. 1990 March; 88(2):611-21). In this method, used in Example 6 below, patterns of staining distinguish non-capacitated, capacitated and acrosome reacted sperm. Chlortetracycline (CTC) solution: CTC (750 μM CTC in Tris (20 mM)-NaCl (130 mM), DL-cysteine (5 mM), buffer (20 mM Tris/130 mM NaCl, pH 7.8). Spermatozoa samples were obtained from healthy bulls (Semex, UK). All semen samples used in this study had been frozen and thawed. Each sample was packed in 0.25 ml plastic straws. The frozen spermatozoa straw (0.25 ml) was rapidly thawed by plunging it into a 37° C. water bath. When the sample was thawed, the straw was dried with a tissue, kept horizontal and cut both ends into a pre-warmed TALP medium. Spermatozoa were washed twice by TALP medium and centrifugation at 600 g for 10 minutes, then re-suspended with TALP pre-warmed to 37° C. Spermatozoa were incubated without additives, or with either angiotensin II (10^−9 moles per litre), fibronectin (5-50 μg/ml), or with both. Treated samples (45 μl) were aliquoted into foil wrapped eppendorf tubes with CTC solution (45 μl) and fixed with 12.5% paraformaldehyde, prior to viewing by […]. Three patterns of chlortetracycline fluorescent staining may be observed on bull spermatozoa: F (uncapacitated)-pattern, bright fluorescence was detected over the whole region of the sperm head; B (capacitated)-pattern, fluorescence was detected on the sperm head but not on the postacrosomal region; AR (acrosome-reacted)-pattern, weak fluorescence was observed over the sperm head, and a bright band was sometimes observed in the equatorial region.

sperm = assay: Sperm viability, carboxyfluorescein diacetate / propidium iodide live-dead stain; type: cell-based; conditions: Example 7; fibronectin 5 μg/ml, stored at room temperature, after 3 days; untreated control 75% to 18%
Method: Stock solutions: carboxyfluorescein diacetate (0.46 mg/ml in dimethyl sulphoxide), propidium iodide (0.5 mg/ml isotonic saline), formaldehyde (10 μl formalin to 150 μl distilled water). Fluorescence stain: 50 μl carboxyfluorescein and 50 μl of propidium iodide to 2 ml sperm extender, plus 100 μl formaldehyde.
Semen were diluted with stain (1:1) dilution and incubated at room temperature […] for 15 min. Samples washed with extender, and examined for live and dead sperm.

[3] = Example 3, fibronectin 2 μg/l added to sperm pre-incubated with RGDS, incubation of 5-10 minutes

Molecule: Angiotensin II (DRVYIHPF; Angiotensin-2; UniProt P01019 25-32, looked up) [peptide used as capacitating agent]
- effect on percentage of motile sperm and linear velocity [1]: may increase both the percentage of motile sperm and their linear velocity
- increase in sperm motility compared to fibronectin alone ([2]; Example 1): 71%
- increase in sperm motility compared to the RGD plus fibronectin sample ([2]; Example 1): 62%
- increase in sperm motility compared to fibronectin alone ([2]; Example 1, 10 minutes): 43%
- increase in sperm motility compared to the RGD plus fibronectin sample ([2]; Example 1, 10 minutes): 34%
- increase in sperm motility compared to fibronectin alone ([2]; Example 1, 20 minutes): 64%
- increase in sperm motility compared to the RGD plus fibronectin sample ([2]; Example 1, 20 minutes): 55%
- sperm motility ([2]; Example 2, Angiotensin II 10^−9 moles/L added to fibronectin (2 μg/l) sample, 10 minutes): 64%
- sperm motility ([2]; Example 2, Angiotensin II 10^−9 moles/L added to fibronectin (2 μg/l) sample, 20 minutes): 62%
- sperm motility ([2]; Example 2, Angiotensin II 10^−9 moles/L added to fibronectin (2 μg/l) sample, 3040 minutes): 62%
- sperm motility ([2]; Example 3, Angiotensin II 10^−9 moles/L added to fibronectin+RGDS sample, 10 minutes): 43%
- sperm motility ([2]; Example 3, Angiotensin II 10^−9 moles/L added to fibronectin+RGDS sample, 20 minutes): 54%
- sperm motility ([2]; Example 3, Angiotensin II 10^−9 moles/L added to fibronectin+RGDS sample, 3040 minutes): 54%
- change in sperm motility ([2]; Example 4, Angiotensin II 10^−9 moles/L added to vitronectin sample, 5 to 35 minutes): significant increase
- change in sperm motility ([2]; Example 5, Angiotensin II 10^−9 moles/L added to laminin sample, 10 to 40 minutes): significant increase
- capacitated sperm (B pattern) (bull spermatozoa; angiotensin II only (10^−9 moles per litre), 60 min incubation): 45%
- uncapacitated sperm (F pattern) (bull spermatozoa; angiotensin II only (10^−9 moles per litre), 60 min incubation, control about 60%, 55% by 30 min): ~18%

Molecule: CCCCc1nc(Cl)c(CO)n1Cc1ccc(-c2ccccc2-c2nn[nH]n2)cc1 [losartan]
- effect on the action of angiotensin II on the percentage of motile sperm ([1]; specific AT1 receptor antagonist): inhibits the action of angiotensin II on the percentage of motile sperm

Molecule: fibronectin
- sperm remaining viable (living sperm) (sperm): 48%
- sperm motility ([2]; Example 1, fibronectin 2 μg/l, incubation of 5-10 minutes, 37° C., control 70% at time zero): 14%
- sperm motility ([2]; Example 2, fibronectin 2 μg/l, incubation of 5-10 minutes, control 79% at time zero): 8%
- decrease of motility compared to the RGD treated sample [2, 3]: 28%
- decrease of motility compared to the control [2, 3]: 47%
- patterns of sperm staining (CTC) (bull spermatozoa; fibronectin 5 μg/ml): very similar to the untreated controls

Molecule: laminin: extracellular matrix protein (250 μg/ml, Sigma)
- change in total sperm motility ([2]; Example 5, laminin 2 μg/l, 10 min, 37° C.): significant decrease

Molecule: Arg-Gly-Asp-Ser (RGDS; printed: Arg-Gly-Asp-Ser) [commercially available tetrapeptide used as a source of RGD]
- decrease in sperm motility ([2]; Example 3, pre-incubation with RGDS 5×10^6 moles/L for 5 min, control 62% at time zero): 19%

B1: vitronectin: extracellular matrix protein (250 μg/ml, Sigma) (protein, UniProt P04004 20-478, looked up)
Vitronectin: DQESCKGRCTEGFNVDKKCQCDELCSYYQSCCTDYTAECKPQVTRGDVFTMPEDEYTVYDDGEEKNNATVHEQVGGPSLTSDLQAQSKGNPEQTPVLKPEEEAPAPEVGASKPEGIDSRPETLHPGRPQPPAEEELCSGKPFDAFTDLKNGSLFAFRGQYCYELDEKAVRPGYPKLIRDVWGIEGPIDAAFTRINCQGKTYLFKGSQYWRFEDGVLDPDYPRNISDGFDGIPDNVDAALALPAHSYSGRERVYFFKGKQYWEYQFQHQPSQEECEGSSLSAVFEHFAMMQRDSWEDIFELLFWGRTSAGTRQPQFISRDWHGVPGQVDAAMAGRIYISGMAPRPSLAKKQRFRHRNRKGYRSQRGHSRGRNQNSRRPSRATWLSLFSSEESNLGANNYDDYRMDWLVPATCEPIQSVFFFSGDKYYRVNLRTRRVDTVDPPYPRSIAQYWLGCPAPGHL
- change in total sperm motility ([2]; Example 4, vitronectin 2 μg/l, 5 minutes, 37° C.): highly significant decrease
